Measurements as given in the NIST ThermoML archive (doi:10.1016/j.jct.2013.09.039).

Conditions: Liquid, Vibrating tube method

Cc1ccc(C)cc1 [1,4-dimethylbenzene]
mass density [kg/m3]
Conditions | 100 kPa | 5000 kPa | 10000 kPa | 20000 kPa | 30000 kPa | 40000 kPa
288.15 K | 864.9 | 868.3 | 871.8 | 878.1 | 884 | 889.7
298.15 K | 856.2 | 860.2 | 863.5 | 870.1 | 876.5 | 882.2
308.15 K | 847.5 | 851.4 | 855.2 | 862.1 | 868.6 | 874.8
